Laboratory results published in patent US9211310B2, “Use of a Chinese medicine composition in preparing medicaments for treating secondary prevention of myocardial infarction” (TASLY PHARMACEUTICAL GROUP CO., LTD, priority 2010, dated 2015).

Test system: patients after acute myocardial infarction
Assay: TCM symptom score, total and single (chest pain, chest tightness, short breath, fatigue, palpitation, spontaneous perspiration, pale complexion), same clinical trial
Format: in vivo, human
Settings: for chest pain score 0, number of patients / chest pain score 0, percent of patients / chest pain score 3, number of patients / chest pain score 3, percent of patients / chest pain score 6, number of patients / chest pain score 6, percent of patients / chest pain score 9, number of patients / chest pain score 9, percent of patients / chest tightness score 0, number of patients / chest tightness score 0, percent of patients / chest tightness score 3, number of patients / chest tightness score 3, percent of patients / chest tightness score 6, number of patients / chest tightness score 6, percent of patients / chest tightness score 9, number of patients / chest tightness score 9, percent of patients: 12 months after treatment
Excerpt: 3508 patients who were in accordance with the diagnostic standards of AMI for 28 days to 2 years and differentiated as Qi deficiency and blood stagnation syndrome by TCM were studied. 0.5 g Chinese medicine composition prepared by the method of EXAMPLE 1 (Coded as QSYQ) was administrated half an hour after meal, 3 times per day.
They included the overall survival time, angina pectoris score, TCM symptom score and life quality score, where angina pectoris score, TCM symptom score and life quality score were evaluated at randomization, in 1st, 3rd, 6th, 9th, 12th month after treatment and 18th month after follow-up.
The analysis method referred to the angina pectoris score.

[1] = 12 months after treatment-baseline, FAS
[2] = 12 months after treatment-baseline, PP
[3] = FAS, 12 months after treatment-treatment

CC(=O)Oc1ccccc1C(=O)O [Control group, aspirine]
change of chest tightness score 9, number of patients [1]: 5
change of chest tightness score 9, percent of patients [1]: (0.29%)
change of chest tightness score −3, number of patients [1]: 83
change of chest tightness score −3, percent of patients [1]: (4.86%)
change of chest tightness score −6, number of patients [1]: 3
change of chest tightness score −6, percent of patients [1]: (0.18%)
change of chest tightness score −9, number of patients [1]: 0
change of chest tightness score −9, percent of patients [1]: (0.00%)
change of chest pain score 0, number of patients [2]: 760
change of chest pain score 0, percent of patients [2]: (54.36%)
change of chest pain score 3, number of patients [2]: 455
change of chest pain score 3, percent of patients [2]: (32.55%)
change of chest pain score 6, number of patients [2]: 131
change of chest pain score 6, percent of patients [2]: (9.37%)
change of chest pain score 9, number of patients [2]: 5
change of chest pain score 9, percent of patients [2]: (0.36%)
change of chest pain score −3, number of patients [2]: 45
change of chest pain score −3, percent of patients [2]: (3.22%)
change of chest pain score −6, number of patients [2]: 2
change of chest pain score −6, percent of patients [2]: (0.14%)
change of chest tightness score 0, number of patients [2]: 721
change of chest tightness score 0, percent of patients [2]: (51.54%)
change of chest tightness score 3, number of patients [2]: 539
change of chest tightness score 3, percent of patients [2]: (38.53%)
change of chest tightness score 6, number of patients [2]: 79
change of chest tightness score 6, percent of patients [2]: (5.65%)
change of chest tightness score 9, number of patients [2]: 4
change of chest tightness score 9, percent of patients [2]: (0.29%)
change of chest tightness score −3, number of patients [2]: 54
change of chest tightness score −3, percent of patients [2]: (3.86%)
change of chest tightness score −6, number of patients [2]: 2
change of chest tightness score −6, percent of patients [2]: (0.14%)
change of chest tightness score −9, number of patients [2]: 0
change of chest tightness score −9, percent of patients [2]: (0.00%)
chest pain score 0, number of patients (FAS): 858
chest pain score 0, percent of patients (FAS): (49.94%)
chest pain score 3, number of patients (FAS): 607
chest pain score 3, percent of patients (FAS): (35.33%)
chest pain score 6, number of patients (FAS): 248
chest pain score 6, percent of patients (FAS): (14.44%)
chest pain score 9, number of patients (FAS): 5
chest pain score 9, percent of patients (FAS): (0.29%)
chest tightness score 0, number of patients (FAS): 858
chest tightness score 0, percent of patients (FAS): (49.94%)
chest tightness score 3, number of patients (FAS): 607
chest tightness score 3, percent of patients (FAS): (35.33%)
chest tightness score 6, number of patients (FAS): 248
chest tightness score 6, percent of patients (FAS): (14.44%)
chest tightness score 9, number of patients (FAS): 5
chest tightness score 9, percent of patients (FAS): (0.29%)
chest pain score 0, number of patients (PP): 725
chest pain score 0, percent of patients (PP): (51.67%)
chest pain score 3, number of patients (PP): 501
chest pain score 3, percent of patients (PP): (35.71%)
chest pain score 6, number of patients (PP): 176
chest pain score 6, percent of patients (PP): (12.54%)
chest pain score 9, number of patients (PP): 1
chest pain score 9, percent of patients (PP): (0.07%)
chest tightness score 0, number of patients (PP): 725
chest tightness score 0, percent of patients (PP): (51.67%)
chest tightness score 3, number of patients (PP): 501
chest tightness score 3, percent of patients (PP): (35.71%)
chest tightness score 6, number of patients (PP): 176
chest tightness score 6, percent of patients (PP): (12.54%)
chest tightness score 9, number of patients (PP): 1
chest tightness score 9, percent of patients (PP): (0.07%)
change of short breath 0, % of patients [3]: (55.85%)
change of short breath 2, % of patients [3]: (32.92%)
change of short breath 2, number of patients [3]: 563
change of short breath 4, % of patients [3]: (4.09%)
change of short breath 4, number of patients [3]: 70
change of short breath 6, % of patients [3]: (0.70%)
change of short breath 6, number of patients [3]: 12
change of short breath −2, % of patients [3]: (6.32%)
change of short breath −2, number of patients [3]: 108
change of short breath −4, % of patients [3]: (0.12%)
change of short breath −4, number of patients [3]: 2
distribution of total score of TCM symptom: Medium, number of patients (FAS, 1 month after treatment): 675
distribution of total score of TCM symptom: Medium, percentage of patients (FAS, 1 month after treatment): (40.11%)
distribution of total score of TCM symptom: Mild, number of patients (FAS, 1 month after treatment): 989
distribution of total score of TCM symptom: Mild, percentage of patients (FAS, 1 month after treatment): (58.76%)
distribution of total score of TCM symptom: Severe, number of patients (FAS, 1 month after treatment): 19
distribution of total score of TCM symptom: Severe, percentage of patients (FAS, 1 month after treatment): (1.13%)
fatigue score 0, % of patients (FAS, 1 month after treatment): (24.05%)
fatigue score 0, number of patients (FAS, 1 month after treatment): 413
fatigue score 2, % of patients (FAS, 1 month after treatment): (60.75%)
fatigue score 2, number of patients (FAS, 1 month after treatment): 1043
fatigue score 4, % of patients (FAS, 1 month after treatment): (13.86%)
fatigue score 4, number of patients (FAS, 1 month after treatment): 238
fatigue score 6, % of patients (FAS, 1 month after treatment): (1.34%)
fatigue score 6, number of patients (FAS, 1 month after treatment): 23
pale complexion score 0, number of patients (FAS, 1 month after treatment): 713
pale complexion score 0, percent of patients (FAS, 1 month after treatment): (41.53%)
pale complexion score 1, number of patients (FAS, 1 month after treatment): 726
pale complexion score 1, percent of patients (FAS, 1 month after treatment): (42.28%)
pale complexion score 2, number of patients (FAS, 1 month after treatment): 245
pale complexion score 2, percent of patients (FAS, 1 month after treatment): (14.27%)
pale complexion score 3, number of patients (FAS, 1 month after treatment): 33
pale complexion score 3, percent of patients (FAS, 1 month after treatment): (1.92%)
palpitation score 0, number of patients (FAS, 1 month after treatment): 427
palpitation score 0, percent of patients (FAS, 1 month after treatment): (24.87%)
palpitation score 1, number of patients (FAS, 1 month after treatment): 1
palpitation score 1, percent of patients (FAS, 1 month after treatment): (0.06%)
palpitation score 2, number of patients (FAS, 1 month after treatment): 834
palpitation score 2, percent of patients (FAS, 1 month after treatment): (48.57%)
palpitation score 4, number of patients (FAS, 1 month after treatment): 398
palpitation score 4, percent of patients (FAS, 1 month after treatment): (23.18%)
palpitation score 6, number of patients (FAS, 1 month after treatment): 57
palpitation score 6, percent of patients (FAS, 1 month after treatment): (3.32%)
short breath score 0, % of patients (FAS, 1 month after treatment): (21.14%)
short breath score 0, number of patients (FAS, 1 month after treatment): 363
short breath score 3, % of patients (FAS, 1 month after treatment): (54.22%)
short breath score 3, number of patients (FAS, 1 month after treatment): 931
short breath score 6, % of patients (FAS, 1 month after treatment): (23.88%)
short breath score 6, number of patients (FAS, 1 month after treatment): 410
short breath score 9, % of patients (FAS, 1 month after treatment): (0.76%)
short breath score 9, number of patients (FAS, 1 month after treatment): 13
spontaneous perspiration score 0, number of patients (FAS, 1 month after treatment): 603
spontaneous perspiration score 0, percent of patients (FAS, 1 month after treatment): (35.12%)
spontaneous perspiration score 1, number of patients (FAS, 1 month after treatment): 879
spontaneous perspiration score 1, percent of patients (FAS, 1 month after treatment): (51.19%)
spontaneous perspiration score 2, number of patients (FAS, 1 month after treatment): 215
spontaneous perspiration score 2, percent of patients (FAS, 1 month after treatment): (12.52%)
spontaneous perspiration score 3, number of patients (FAS, 1 month after treatment): 20
